Measurements taken from patent US6395762B1, “Phenyl amino squarate and thiadiazole dioxide beta-3 adrenergic receptor agonists” (American Home Products Corporation, priority 2000, dated 2002).
Counter-ions that a name gives are not always drawn. Like-named read-outs stand apart in the source and are kept apart here.

Assays:
[1] = molecular target: T1, human β3-AR (Homo sapiens, UniProt P13945); test: cAMP accumulation (SPA) in CHO cells transfected with human β3-AR; assay type: cell-based; details: for IA(β3): maximal response of compound relative to maximal response of isoproterenol at 10^−5 M
T1 construct: Full-length β3-AR clones (402 amino acids) containing the last 6 amino acids of hβ3-AR; expressed in transfected cells; host or cells: CHO (Chinese hamster ovary) cells
Protocol: The ability of the compounds of this invention to treat or inhibit disorders related to insulin resistance or hyperglycemia was confirmed with representative compounds of this invention in the following standard pharmacological test procedures, which measured the binding selectivity of the β1-, β2-, and β3-AR. Binding to the receptors was measured in Chinese Hamster ovary (CHO) cells that were transfected with β1-, β2-, and β3-AR's. The following briefly summarizes the procedures used and results obtained.
Cloning of Human β3-AR Genomic DNA: cDNA was constructed by ligating four polymerase chain reaction (PCR) products using the following primers: an ATG-Narl fragment, sense primer 5′-[…]3′ and anti-sense primer 5′[…]3′; a Narl-Accl fragment, 5′[…]3′ as sense and 5′[…]3′ as anti-sense primer; an Accli—Styl fragment, sense primer 5′[…]3′ and anti-sense primer 5′[…]3′ and a Styl-TAG fragment, with sense primer 5′ […]3′ and anti-sense primer 5′ […]3′ . The corresponding primer sequences are described in Mantzoros, C. S., et.al., Diabetes, 1996, 45, 909-914. The four fragments are ligated into a pUC 18 plasmid (Gibco-BRL) and sequenced. Full-length β3-AR clones (402 amino acids) containing the last 6 amino acids of hβ3-AR are prepared with the β3-βARpcDNA3 from ATTC.
Binding Procedure: Clones expressing receptor levels of 70 to 110 fmoles/mg protein were used in the test procedures. CHO cells were grown in 24-well tissue culture plates in Dulbecco's Modified Eagle Media with 10% fetal bovine serum, MEM non-essential amino acids, Penicillin—Streptomycin and Geneticin. On the day of test procedure, growth medium was replaced with preincubation media (Dulbecco's Modified Eagle Media) and incubated for 30 minutes at 37° C. Pre-incubation medium was replaced with 0.2 ml treatment medium containing DMEM media containing 250 μM IBMX (isobutyl-1-methylxantine) plus 1 mM ascorbic acid with test compound dissolved in DMSO. Test compounds were assayed over a concentration range of 10^−9 M to 10^−5 M for β3-AR transfected cells and 10^−8 to 10^−4 M for β1-AR and β2-AR transfected cells. Isoproterenol (10^−5 M) was used as an internal standard for comparison of activity. Cells were incubated at 37° C. on a rocker for 30 min with the β3-AR transfected cells and 15 min with β1-AR and β2-AR transfected cells. Incubation was stopped by the addition of 0.2N HCl and the acid was neutralized with 2.5N NaOH. The plates, containing the cells and neutralized media, were stored at −20° C. until ready to test for cAMP using the SPA test kit (Amersham).
Data Analysis and Results: Data collected from the SPA test procedure were analyzed as percent of the maximal isoproterenol response at 10^−5 M. Activity curves were plotted using the SAS statistical and graphics software.

[2] = CHO cells transfected with human β3-AR, cAMP by SPA, 30 min at 37° C., 10^−9 M to 10^−5 M, read-out: EC50(β3)
[3] = CHO cells transfected with human β3-AR

T1 sequence (P13945 whole entry): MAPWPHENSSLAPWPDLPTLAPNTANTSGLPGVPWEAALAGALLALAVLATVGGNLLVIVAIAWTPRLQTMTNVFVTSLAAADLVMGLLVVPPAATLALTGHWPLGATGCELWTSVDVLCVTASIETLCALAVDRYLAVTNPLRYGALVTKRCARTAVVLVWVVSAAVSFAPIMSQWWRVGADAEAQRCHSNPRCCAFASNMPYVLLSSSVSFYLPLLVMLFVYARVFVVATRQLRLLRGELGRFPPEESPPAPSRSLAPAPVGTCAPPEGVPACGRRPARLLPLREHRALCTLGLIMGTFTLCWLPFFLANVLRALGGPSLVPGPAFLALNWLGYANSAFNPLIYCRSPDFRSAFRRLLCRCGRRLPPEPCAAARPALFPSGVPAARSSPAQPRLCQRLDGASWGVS

Row | EC50 [1, 2] [nM] | IA(β3) [1, 3] | melting point | Structure (SMILES) | EC50 [1] [nM]
1 | 233 | 0.47 | 125 to 131 °C | CCCCCCCCNc1c(Nc2ccc(CC(C)NC[C@H](O)COc3cccc4[nH]c5ccccc5c34)cc2)c(=O)c1=O (stereo partly drawn) [Compound 16, 3-(4-{2-[(2S)-3-(9H-Carbazol-4-yloxy)-2-hydroxy-propylamino]-propyl}-phenylamino)-4-octylamino-cyclobut-3-ene-1,2-dione] | 
2 | 1360 | 0.64 | 144 to 155 °C | CCCCCCCCCCNc1c(Nc2ccc(CC(C)NC[C@H](O)COc3ccccc3)cc2)c(=O)c1=O (some centres unmarked) [Compound 23] | 
3 | 198 | 0.42 | 90 to 96 °C | CCCCCCCCNC1=NS(=O)(=O)N=C1Nc1cccc(CC(C)NCC(O)c2cccc(Cl)c2)c1 [Compound 2, (1R)-1-(3-Chloro-phenyl)-2-{1-methyl-2-[3-(4-octylamino-1,1-dioxo-1H-1-.lambda(6).-[1,2,5]thiadiazol-3-ylamino)-phenyl-]-ethylamino}-ethanol] | 
4 | 18 | 0.75 | 98 °C (dec.) | CCCCCCCCNC1=NS(=O)(=O)N=C1Nc1ccc(CCNC[C@H](O)COc2ccc(O)cc2)cc1 [Compound 5, 4-((2S)-2-Hydroxy-3-{2-[4-(4-octylamino-1,1-dioxo-1H-1.lambda(6).-[1,2,5]thiadiazol-3-ylamino)-phenyl]-ethylamino}-propoxy)-phenol] | 
5 | 87 | 0.71 | 173 to 175 °C | CCCCCCCCNc1c(Nc2ccc(CC(C)NC[C@H](O)c3cccc(Cl)c3)cc2)c(=O)c1=O (stereo partly drawn) [Compound 10, 3-(4-{2-[(2R)-2-(3-Chloro-phenyl)-2-hydroxy-ethylamino]-propyl}-phenylamino)-4-octylamino-cyclobut-3-ene-1 2-dione] | 
6 | 6 | 0.87 | 126 to 131 °C | CC(Cc1ccc(NC2=NS(=O)(=O)N=C2NCCc2ccc(F)cc2)cc1)NC[C@H](O)COc1ccc(O)cc1 (some centres unmarked) [Compound 37] | 
7 | 81 | 0.41 | 146 to 155 °C | CCCCCCCCNc1c(Nc2ccc(CC(C)NC[C@H](O)COc3ccccc3)cc2)c(=O)c1=O (stereo partly drawn) [Compound 24, 3-{4-[2-((2S)-2-Hydroxy-3-phenoxy-propylamino)-propyl]-phenylamino}-4-octylamino-cyclobut-3-ene-1,2-dione] | 
8 | 204 | 0.74 | 90 to 96 °C | CCCCCCNC1=NS(=O)(=O)N=C1Nc1cccc(CC(C)NC[C@H](O)c2cccc(Cl)c2)c1 (stereo partly drawn) [Compound 9, (1R)-1-(3-Chloro-phenyl)-2-{2-[3-(4-hexylamino-1,1-dioxo-1H-1-.lambda(6) .-[1,2,5]thiadiazol-3-ylamino)-phenyl]-1-methyl-ethylamino}-ethanol] | 
9 |  | 0.31 | 225 °C | CCCCCCCCCCNc1c(Nc2ccc(CCCNC[C@H](O)COc3cccc4[nH]c5ccccc5c34)cc2)c(=O)c1=O [Compound 17, 3-(4-{[(2S)-3-(9H-Carbazol-4-yloxy)-2-hydroxy-propylamino]-propyl}-phenylamino)-4-decylamino-cyclobut-3-ene-1,2-dione] | 
10 | 10 | 0.91 | 154.5 to 158.5 °C | CCCCCCNC(=O)Nc1ccc(C2(CNC3=NS(=O)(=O)N=C3Nc3ccc(CC(C)(C)NC[C@H](O)COc4ccc(O)cc4)cc3)CCCC2)cc1 [Compound 8, 1-Hexyl-3-[4-(1-{[4-(4-{2-[(2S)-2-hydroxy-3-(4-hydroxy-phenoxy)-propylamino]-2-methyl-propyl}-phenylamino)-1,1-dioxo-1H-1.lambda(6).-{1,2,5]thiadiazol-3-ylamino]-methyl}-cyclopentyl)-phenyl]-urea] | 
11 | 125 | 0.51 | 81 to 86 °C | CCCCCCCCNC1=NS(=O)(=O)N=C1Nc1ccc(CC(C)NC[C@H](O)COc2ccc3c(c2)OCO3)cc1 (stereo partly drawn) [Compound 35, (2S)-1-(1,3-Benzodioxol-5-yloxy)-3-{1-methyl-2-[4-(4-octylamino-1,1-dioxo-1H-1.lambda(6).-[1,2,5]thiadiazol-3-ylamino)-phenyl]-ethylamino}-propan-2-ol] | 
12 | 2 | 1.26 | 120 °C (dec.) | CCCCCCCCNC1=NS(=O)(=O)N=C1Nc1ccc(CC(C)NC[C@H](O)c2ccc(O)c(NS(C)(=O)=O)c2)cc1 (some centres unmarked) [Compound 6] | 
13 | 64 | 0.64 | 121 to 124 °C | CCCCCCCCNC1=NS(=O)(=O)N=C1Nc1ccc(CC(C)NC[C@H](O)COc2cccc3[nH]c4ccccc4c23)cc1 (stereo partly drawn) [Compound 21, (2S)-1-(9H-Carbazol-4-yloxy)-3-{1-methyl-2-[4-(4-octylamino-1,1-dioxo-1H-1(lambda(6))-[1,2,5]thiadiazol-3-ylamino)-phenyl]-ethylamino}-propan-2-ol] | 
14 | 86 | 0.97 | 130 to 132 °C | CCCCCCCCCCNc1c(Nc2ccc(CC(C)NC[C@H](O)COc3ccc(O)cc3)cc2)c(=O)c1=O (some centres unmarked) [Compound 15] | 
15 | 5 | 0.91 | 95 to 100 °C | COc1ccc(CCNC2=NS(=O)(=O)N=C2Nc2ccc(CC(C)NC[C@H](O)COc3ccc(O)cc3)cc2)cc1 (stereo partly drawn) [Compound 36, (S)-4-{2-hydroxy-3-[2-(4-{4-[2-(4methoxy-phenyl)-ethylamino]-1 1-dioxo-1H-1.lambda(6).-[1,2,5]thiadiazol-3-ylamino}-phenyl)-1-methyl-ethylamino]-propoxy}-phenol] | 
16 |  |  | 162 to 165 °C | CC(Cc1ccc(NC2=NS(=O)(=O)N=C2NCC2(c3ccccc3)CCCC2)cc1)NC[C@H](O)COc1ccc(O)cc1 (stereo partly drawn) (as salt: HCl) [Compound 31, 4-{(2S)-3-[2-(4-{1,1-Dioxo-4-[(1-phenyl-cyclopentylmethyl)-amino]-1H-1(lambda(6))-[1,2,5]thiadiazol-3-ylamino}-phenyl)-1-methyl-ethylamino]-2-hydroxy-propoxy}-phenol] | 
17 | 11 | 1.45 | 203.5 to 206 °C | CCCCCCCCNC1=NS(=O)(=O)N=C1Nc1ccc(CC(C)NC[C@H](O)COc2ccc(O)cc2)cc1 (stereo partly drawn) [Compound 12, 4-((2S)-2-Hydroxy-3-{1-methyl-2-[4-(4-octylamino-1,1-dioxo-1H-1-.lambda(6).-[1,2,5]thiadiazol-3-ylamino)-phenyl]-1-ethylamino}-propoxy)-phenol] | 
18 | 9 | 1.27 | 120 °C (dec.) | CCCCCCCCCCNC1=NS(=O)(=O)N=C1Nc1ccc(CC(C)NC[C@H](O)c2ccc(O)c(NS(C)(=O)=O)c2)cc1 (stereo partly drawn) [Compound 27, N-[5-((1R)-2-{2-[4-(4-Decylamino-1,1-dioxo-1H-1(lambda(6))-[1 2,5]thiadiazol-3-ylamino)-phenyl]-1-methyl-ethylamino}-1-hydroxy-ethyl)-2-hydroxy-phenyl]-methanesulfonamide] | 
19 | 116 | 0.93 | 103 to 105 °C | CC(Cc1ccc(NC2=NS(=O)(=O)N=C2NCC2(c3ccccc3)CCCC2)cc1)NC[C@H](O)COc1ccc(OCc2ccccc2)cc1 (stereo partly drawn) [Compound 30, (2S)-1-(4-Benzyloxy-phenoxy)-3-[2-(4-{1 ,-dioxo-4-[(1-phenyl-cyclopentylmethyl)-amino]-1H-1(lambda(6))-[1,2,5]thiadiazol-3-ylamino}-phenyl)-1-methyl-ethylamino]-propan-2-ol] | 
20 |  | 0.39 | 77 to 82 °C | CCCCCCCCNC1=NS(=O)(=O)N=C1Nc1ccc(CC(C)NC[C@H](O)COc2ccccc2)cc1 (stereo partly drawn) [Compound 22, (2S)-1-{[1-methyl-2-(4-{[4-(octylamino)-1,1-dioxido-1,2,5-thiadiazol-3-yl]amino}phenyl)ethyl]amino}-3-phenoxypropan-2-ol] | 

Row | Structure (SMILES) | EC50 [1, 2] [nM] | IA(β3) [1, 3] | melting point | EC50 [1] [nM]
21 | CCCCNc1c(Nc2ccc(CC(C)NC[C@H](O)c3cccc(Cl)c3)cc2)c(=O)c1=O (stereo partly drawn) [Compound 1, 3-Butylamino-4-(4-{2-[(2R)-2-(3-chloro-phenyl)-2-hydroxy-ethylamino]-propyl}-phenylamino)-cyclobut-3-ene-1,2-dione] |  | 0.16 | 176 to 179 °C | 115
